Data: paper PMC4311969 (Journal of the American Chemical Society, 2015)
“And” between values parts separate entries of the source, which are not always exact repeats. Identical values can stand only once. Counter-ions that a name gives are not always drawn. Like-named read-outs stand apart in the source and are kept apart here.

Legend:
[1] = target: T1, yeast orotidine monophosphate decarboxylase (ScOMPDC) (Saccharomyces cerevisiae, UniProt P03962, C155S); conditions: cited from earlier work; for intrinsic oxydianion binding energy (ΔG^‡): ScOMPDC-catalyzed decarboxylation of EO
T1 sequence (P03962 1-267 C155S): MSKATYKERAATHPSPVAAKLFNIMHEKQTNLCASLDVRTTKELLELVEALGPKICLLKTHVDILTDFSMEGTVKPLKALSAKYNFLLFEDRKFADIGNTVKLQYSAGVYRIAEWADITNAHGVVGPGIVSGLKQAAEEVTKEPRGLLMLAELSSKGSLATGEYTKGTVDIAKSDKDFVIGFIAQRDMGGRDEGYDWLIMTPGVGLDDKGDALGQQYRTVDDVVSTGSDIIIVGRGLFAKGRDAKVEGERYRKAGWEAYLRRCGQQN

[2] = target: T2, human liver glycerol 3-phosphate dehydrogenase (hlGPDH) (Homo sapiens, UniProt P21695); assay: Oxydianion activation of hlGPDH-catalyzed reduction of GA by NADH; type: biochemical; conditions: for RT ln(K^‡)X, intrinsic Gibbs dianion binding free energy: hlGPDH-catalyzed reduction of GA
T2 sequence (P21695 1-349): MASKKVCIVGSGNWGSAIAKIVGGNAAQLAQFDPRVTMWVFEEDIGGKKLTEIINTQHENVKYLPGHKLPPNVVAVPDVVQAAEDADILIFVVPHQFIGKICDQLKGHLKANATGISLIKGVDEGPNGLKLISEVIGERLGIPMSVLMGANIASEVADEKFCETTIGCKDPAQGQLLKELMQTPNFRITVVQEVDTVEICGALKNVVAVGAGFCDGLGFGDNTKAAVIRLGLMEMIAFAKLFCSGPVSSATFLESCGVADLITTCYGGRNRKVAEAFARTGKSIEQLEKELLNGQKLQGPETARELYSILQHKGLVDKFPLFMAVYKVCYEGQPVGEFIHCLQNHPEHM

[3] = target: T1, yeast orotidine monophosphate decarboxylase (ScOMPDC); assay: Oxydianion activation of ScOMPDC-catalyzed decarboxylation of EO; type: biochemical
[4] = target: T3, yeast triosephosphate isomerase (ScTIM) (Saccharomyces cerevisiae, UniProt P00942); assay: Oxydianion activation of ScTIM-catalyzed reactions of [1-13C]-GA in D2O; type: biochemical; conditions: for Kd: read-out: KX, dissociation constant for release of the oxydianion from ScTIM, 20 mM [1-^13C]-GA in D2O, pD 7.0 (20 mM imidazole), I = 0.1 (NaCl), fit to eq 3; for Kd / RT ln(K^‡)X, intrinsic Gibbs dianion binding free energy: 25 °C; for RT ln(K^‡)X, intrinsic Gibbs dianion binding free energy: [1-^13C]-GA in D2O
T3 sequence (P00942 1-248): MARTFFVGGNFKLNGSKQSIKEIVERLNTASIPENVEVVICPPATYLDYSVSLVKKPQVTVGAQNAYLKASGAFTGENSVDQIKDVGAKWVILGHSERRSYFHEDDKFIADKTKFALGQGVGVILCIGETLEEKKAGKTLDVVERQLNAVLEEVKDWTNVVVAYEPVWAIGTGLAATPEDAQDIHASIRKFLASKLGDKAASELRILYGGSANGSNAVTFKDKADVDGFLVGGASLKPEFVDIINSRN

[5] = target: T4, human liver GPDH (hlGPDH) (Homo sapiens, UniProt P21695); type: biochemical; conditions: identical plots at 0.10 or 0.20 mM NADH; printed ≪
T4 sequence (P21695 1-349): T2 sequence (P21695 1-349)

[6] = system: ScOMPDC; conditions: cited from earlier work
[7] = pH 7.5 (10 mM TEA), 25 °C, 0.2 mM NADH, I = 0.12 (NaCl)

## O=[As](O)(O)O [HOAsO3^2–]
[1]
  intrinsic oxydianion binding energy (ΔG^‡): no activation detected

## O=CCO [GA, glycolaldehyde]
[2]; GA + HPO3^2–, estimated as [(kcat/Km)E·HPi]Kd
  k′cat, turnover of the complex between enzyme and substrate pieces: 5.5 s^–1
[2]; no dianion, 0.05 mM hlGPDH, pH 7.5, 25 °C, 0.2 mM NADH, I = 0.12 (NaCl)
  kcat, unactivated reduction of GA: 3.1 × 10^–4 s^–1
[2]; no dianion, carbonyl form of GA, pH 7.5, 25 °C, 0.2 mM NADH, I = 0.12 (NaCl)
  KGA, unactivated reduction of GA: 6.2 mM
[2]; read-out: Kd of truncated substrate, substrate pieces, GA + HPO3^2–
  Kd: 5 mM

## O=C(O)c1cc(=O)n([C@@H]2OC[C@@H](O)[C@H]2O)c(=O)[nH]1 [EO, 1-(β-D-erythrofuranosyl)orotic acid]
[3]; EO + HPO3^2–, calculated using published (kcat/Km)E·HPi and Kd (ref 10)
  k′cat, turnover of the complex between enzyme and substrate pieces: ≈ 160 ^f s^–1
[1]; read-out: Kd of truncated substrate, substrate pieces, EO + HPO3^2–
  Kd: 100 mM and ~100 mM

## O=S(O)(O)=S [S2O3^2–, thiosulfate dianion]
[2]; [7]
  (kcat)E·X, first-order rate constant for turnover of the Michaelis complex: 0.0190 ± 0.002 s^–1
[1]
  intrinsic oxydianion binding energy (ΔG^‡): -4.6 kcal/mol
[4]
  Kd: 7 ± 1 mM

## O=S(=O)(O)O [SO4^2–, sulfate]
[2]; 25 °C
  RT ln(K^‡)X, intrinsic Gibbs dianion binding free energy: –5.9 kcal/mol
[2]; [7]
  (kcat)E·X, first-order rate constant for turnover of the Michaelis complex: 0.360 ± 0.040 s^–1
[1]
  intrinsic oxydianion binding energy (ΔG^‡): -4.5 kcal/mol

## O=[PH](O)O [HPO3^2–, phosphite dianion]
[2]; 25 °C
  RT ln(K^‡)X, intrinsic Gibbs dianion binding free energy: –7.5 kcal/mol
[2]; 25 °C, listed as phosphite dianion
  RT ln(K^‡)X, intrinsic Gibbs dianion binding free energy: −7.5 kcal/mol
[2]; [7]
  (kcat)E·X, first-order rate constant for turnover of the Michaelis complex: 5.5 ± 0.3 s^–1
[2]; read-out: KX, dissociation constant for release of the oxydianion from the binary or ternary enzyme complex, pH 7.5 (10 mM TEA), 25 °C, 0.2 mM NADH, I = 0.12 (NaCl)
  Kd: 70 ± 4 mM
[3]; ScOMPDC
  intrinsic dianion binding energy (given without sign): 7.7 kcal/mol
[3]; yeast OMPDC-catalyzed decarboxylation, substrate pieces
  ratio of (kcat/Km)E·X/KX to (kcat/Km)E: 4.4 × 10^5 M^–1
[1]
  intrinsic oxydianion binding energy (ΔG^‡): -7.7 kcal/mol
[4]; ScTIM
  intrinsic dianion binding energy (given without sign): 6.3 kcal/mol
  RT ln(K^‡)X, intrinsic Gibbs dianion binding free energy: –6.3 kcal/mol
[4]; ScTIM, listed as phosphite dianion
  RT ln(K^‡)X, intrinsic Gibbs dianion binding free energy: −6.3 kcal/mol
[4]; ScTIM-catalyzed isomerization, substrate pieces
  ratio of (kcat/Km)E·X/KX to (kcat/Km)E: 4.4 × 10^4 M^–1
[4]
  Kd: 18 ± 3 mM

## NC(=O)C1=CN([C@@H]2O[C@H](COP(=O)(O)OP(=O)(O)OC[C@H]3O[C@@H](n4cnc5c(N)ncnc54)[C@H](O)[C@@H]3O)[C@@H](O)[C@H]2O)C=CC1 [NADH]
[5]
  Km: < 100 µM

## O=P(O)(O)O [HOPO3^2–, phosphate]
[2]; 25 °C
  RT ln(K^‡)X, intrinsic Gibbs dianion binding free energy: –4.9 kcal/mol
[2]; [7]
  (kcat)E·X, first-order rate constant for turnover of the Michaelis complex: 0.032 ± 0.002 s^–1
[1]
  intrinsic oxydianion binding energy (ΔG^‡): -3.0 kcal/mol

## O=S(O)O [SO3^2–]
[1]
  intrinsic oxydianion binding energy (ΔG^‡): -8.3 kcal/mol

## O=C(O)c1cc(=O)[nH]c(=O)n1[C@@H]1O[C@H](COP(=O)(O)O)[C@@H](O)[C@H]1O [OMP, Orotidine 5′-monophosphate]
[6]
  kcat, turnover of whole substrate: 16 s^–1
